# Experiments:
# Solubility in water = format: physicochemical; details: phosphate salt
# [1] = system: PD patients with constipation; assay: Phase 2 trial Stage 1: prokinetic response to single escalating oral doses; format: in vivo, human; details: Example 1, FIG. 1A
# Description: (§1) Following successful screening, all subjects underwent a 14-day run-in period where the degree of constipation was assessed through a validated daily log (Zinsmeister et al. 2013) establishing baseline CSBMs/week. Subjects with an average of <3 CSBMs/week proceeded to dosing.
# Tolerability limits included diarrhea or vomiting.
# [2] = system: PD patients with constipation; assay: Phase 2 trial Stage 2: bowel function under daily oral dosing (fixed dose, randomized period, wash-out); format: in vivo, human; details: Stage 2 fixed dose
# Description: as §1
# (§2) In Stage 2, 34 patients were evaluated.
# The primary efficacy outcome variable was whether or not a subject was a “success” or “failure”. This is an endpoint based on subject diary entries for the “fixed dose” period prior to the endpoint assessment defined as average complete stool frequency increase by 1 or more over baseline, or 3 or more complete spontaneous stools/week. The subject was deemed a “success” if s/he met one or more of the criteria listed above, otherwise the subject was deemed a “failure”. The primary analysis was based on all subjects with a baseline assessment and an assessment at the end of the “fixed-dose” period and was a comparison of the proportion of successes with 0.10 (the null hypothesis corresponding to no treatment effect).
# The proportion of subjects for whom the drug was a success was estimated with a binomial point estimate and corresponding 95% confidence interval. A secondary analysis compared the proportions of subjects who are deemed a success at the end of the randomized fixed-dose period between those randomized to the squalamine (ENT-01) arm and those randomized to the placebo arm. A Fisher's exact test was used to compare the proportions of subjects who were deemed a success at the end of randomization period between the two randomized arms
# [3] = system: PD patients with constipation; assay: Safety and adverse event profile, Stage 2; format: in vivo, human
# Description: as §2
structure (smiles),measurement,setting,value
"CC(C)[C@@H](CC[C@@H](C)[C@H]1CC[C@H]2[C@@H]3[C@H](O)C[C@H]4C[C@@H](NCCCNCCCCN)CC[C@]4(C)[C@H]3CC[C@]12C)OS(=O)(=O)O (single isomer, unassigned) [squalamine (ENT-01), squalamine]",solubility in water,Solubility in water; neutral pH,weakly soluble
same,solubility in water,Solubility in water; pH<3.5 (the pH of gastric fluid),readily dissolves
same,subjects responded with improved bowel function,[1],80%
same,"CSBM, weekly average (mean, SD)","[2]; n=34, baseline 1.2 (0.90)",3.8 /week
same,"SBM, weekly average (mean, SD)","[2]; n=34, baseline 2.6 (1.45)",4.5 /week
same,"Suppository use / rescue medication, weekly average (mean, SD)",[2]; baseline 1.8 (1.92),0.3 /week
same,"Consistency, Bristol stool scale (mean, SD)","[2]; scale 1-7, baseline 2.7 (1.20), listed as aminosterol",4.1
same,"Ease of passage, Ease of evacuation scale (mean, SD)","[2]; scale 1-7, baseline 3.2 (0.73), listed as aminosterol",3.7
same,patients who withdrew during dosing because of diarrhea,[3]; Stage 2,2 patients
same,"diarrhea, patients","[3]; Stage 2, 15/34 patients",44%
same,"Abdominal pain, Mild","[3]; Stage 2, 34 dosed",4 n
same,"Abdominal pain, Moderate","[3]; Stage 2, 34 dosed",2 n
same,"Blood in urine, Mild","[3]; Stage 2, 34 dosed",0 n
same,"Blood in urine, Moderate","[3]; Stage 2, 34 dosed",0 n
same,"Diarrhea, Mild","[3]; Stage 2, 34 dosed",12 n
same,"Diarrhea, Moderate","[3]; Stage 2, 34 dosed",2 n
same,"Diarrhea, Severe","[3]; Stage 2, 34 dosed",1 n
same,"Difficulty falling asleep, Mild","[3]; Stage 2, 34 dosed",1 n
same,"Difficulty falling asleep, Moderate","[3]; Stage 2, 34 dosed",0 n
same,"Dizziness, Mild","[3]; Stage 2, 34 dosed",7 n
same,"Dizziness, Moderate","[3]; Stage 2, 34 dosed",1 n
same,"Eye infection, Mild","[3]; Stage 2, 34 dosed",1 n
same,"Eye infection, Moderate","[3]; Stage 2, 34 dosed",0 n
same,"Flatulence, Mild","[3]; Stage 2, 34 dosed",1 n
same,"Flatulence, Moderate","[3]; Stage 2, 34 dosed",0 n
same,"Headache, Mild","[3]; Stage 2, 34 dosed",3 n
same,"Headache, Moderate","[3]; Stage 2, 34 dosed",0 n
same,"Increased urinary frequency, Mild","[3]; Stage 2, 34 dosed",2 n
same,"Increased urinary frequency, Moderate","[3]; Stage 2, 34 dosed",0 n
same,"Loss of appetite, Mild","[3]; Stage 2, 34 dosed",0 n
same,"Loss of appetite, Moderate","[3]; Stage 2, 34 dosed",0 n
same,"Nausea, Mild","[3]; Stage 2, 34 dosed",18 n
same,"Nausea, Moderate","[3]; Stage 2, 34 dosed",1 n
same,"Skin lesions-rash, Mild","[3]; Stage 2, 34 dosed",3 n
same,"Skin lesions-rash, Moderate","[3]; Stage 2, 34 dosed",0 n
same,"Urinary retention, Mild","[3]; Stage 2, 34 dosed",1 n
same,"Urinary retention, Moderate","[3]; Stage 2, 34 dosed",0 n
same,"Urinary tract infection, Mild","[3]; Stage 2, 34 dosed",1 n
same,"Urinary tract infection, Moderate","[3]; Stage 2, 34 dosed",2 n
same,"Vomiting, Mild","[3]; Stage 2, 34 dosed",2 n
same,"Vomiting, Moderate","[3]; Stage 2, 34 dosed",0 n
same,"Worsening acid reflux, Mild","[3]; Stage 2, 34 dosed",4 n
same,"Worsening acid reflux, Moderate","[3]; Stage 2, 34 dosed",0 n
same,"Worsening hemorrhoid, Mild","[3]; Stage 2, 34 dosed",1 n
same,"Worsening hemorrhoid, Moderate","[3]; Stage 2, 34 dosed",0 n
same,AEs confined to the GI tract,"[3]; Stage 2, share of AEs",63%
same,"Lower GI bleed, Severe","[3]; Stage 2, Unrelated to ENT-01",1 n
same,"lower GI bleed (Serious adverse event, SAE)","[3]; during the withdrawal period, considered unrelated to study medication",One patient
